According to ChEMBL document CHEMBL6087482, “Discovery of INCB159020, an Orally Bioavailable KRAS G12D Inhibitor” (J Med Chem, 2025):
pIC50, pKd: −log10 of the molar value.

Columns and labels:
[1] = Inhibition of ERK phosphorylation in KRAS G12D mutant dependent human HPAF-II cells incubated for 2 hrs by HTRF assay; type: cell-based
[2] = Apparent permeability across apical to basolateral side in human Caco-2 cells at 50 uM incubated for 120 mins by LC-MS analysis; type: ADME, cell-based
GTPase KRas [3] = target: GTPase KRas (Homo sapiens, UniProt P01116, G12D); assay: Inhibition of bodipy-loaded KRAS G12D mutant (unknown origin) assessed as GDP-GTP exchange preincubated for 4 hrs followed by GppNHp and SOS1 addition and measured after 2 hrs by fluorescence based plate reader analysis
[4] = Inhibition of ERK phosphorylation in KRAS G12D mutant dependent human HPAF-II cells incubated for 2 hrs with human whole blood containing compound by HTRF assay; type: cell-based
[5] = Intrinsic clearance in human liver microsomes at 1 uM measured upto 30 mins in presence of NADPH by LC/MS analysis; type: ADME, Microsome; settings: read-out: CLH (converted)
GTPase KRas [6] = target: GTPase KRas (Homo sapiens, UniProt P01116); assay: Binding affinity to KRAS (unknown origin) assessed as dissociation constant by SPR analysis
[7] = Efflux ratio of apparent permeability in human Caco-2 cells at 50 uM incubated for 120 mins by LC-MS analysis; type: ADME, cell-based
Primates [8] = assay: Clearance in Non human primate at 2.0 mg/kg, po or 0.5 mg/kg, iv; type: ADME, organism-based; settings: in vivo
[9] = Oral bioavailability in Sprague-Dawley rat at 3 mg/kg measured after 24 hrs by LC-MS/MS analysis; type: ADME, organism-based; settings: in vivo
[10] = Cmax in Non human primate at 2.0 mg/kg, po or 0.5 mg/kg, iv; type: ADME, organism-based; settings: primates, in vivo
Primates [11] = assay: AUC in Non human primate at 2.0 mg/kg, po or 0.5 mg/kg, iv; type: ADME, organism-based; settings: in vivo
[12] = Cmax in Sprague-Dawley rat at 3 mg/kg, po or 1 mg/kg, iv measured after 24 hrs by LC-MS/MS analysis; type: ADME, organism-based; settings: in vivo
[13] = Oral bioavailability in Non human primate at 2.0 mg/kg; type: ADME, organism-based; settings: primates, in vivo
[14] = Clearance in Sprague-Dawley rat assessed as hepatic blood flow at 3 mg/kg, po or 1 mg/kg, iv measured after 24 hrs by LC-MS/MS analysis; type: ADME, organism-based; settings: in vivo
Primates [15] = assay: Clearance in Non human primate assessed as hepatic blood flow at 2.0 mg/kg, po or 0.5 mg/kg, iv; type: ADME, organism-based; settings: in vivo
[16] = AUC in Sprague-Dawley rat at 3 mg/kg, po or 1 mg/kg, iv measured after 24 hrs by LC-MS/MS analysis; type: ADME, organism-based; settings: in vivo
[17] = Half-life in Non human primate at 2.0 mg/kg, po or 0.5 mg/kg, iv; type: ADME, organism-based; settings: primates, in vivo
[18] = Half-life in Sprague-Dawley rat at 3 mg/kg, po or 1 mg/kg, iv measured after 24 hrs by LC-MS/MS analysis; type: ADME, organism-based; settings: in vivo
[19] = Half-life in Non human primate at 2.0 mg/kg, po or 1 mg/kg, iv; type: ADME, organism-based; settings: primates, in vivo
[20] = Cmax in Non human primate at 2.0 mg/kg, po or 1 mg/kg, iv; type: ADME, organism-based; settings: primates, in vivo
[21] = Cmax in Sprague-Dawley rat at 3 mg/kg, po or 0.1 mg/kg, iv measured after 24 hrs by LC-MS/MS analysis; type: ADME, organism-based; settings: in vivo
[22] = AUC in Sprague-Dawley rat at 3 mg/kg, po or 0.1 mg/kg, iv measured after 24 hrs by LC-MS/MS analysis; type: ADME, organism-based; settings: in vivo
[23] = Half-life in Sprague-Dawley rat at 3 mg/kg, po or 0.1 mg/kg, iv measured after 24 hrs by LC-MS/MS analysis; type: ADME, organism-based; settings: in vivo
Primates [24] = assay: Clearance in Non human primate assessed as hepatic blood flow at 2.0 mg/kg, po or 1 mg/kg, iv; type: ADME, organism-based; settings: in vivo
[25] = AUC in Non human primate at 2.0 mg/kg, po or 1 mg/kg, iv; type: ADME, organism-based; settings: primates, in vivo
[26] = Clearance in Sprague-Dawley rat assessed as hepatic blood flow at 3 mg/kg, po or 0.1 mg/kg, iv measured after 24 hrs by LC-MS/MS analysis; type: ADME, organism-based; settings: in vivo

GTPase KRas (Homo sapiens, UniProt P01116), sequence (P01116 whole entry): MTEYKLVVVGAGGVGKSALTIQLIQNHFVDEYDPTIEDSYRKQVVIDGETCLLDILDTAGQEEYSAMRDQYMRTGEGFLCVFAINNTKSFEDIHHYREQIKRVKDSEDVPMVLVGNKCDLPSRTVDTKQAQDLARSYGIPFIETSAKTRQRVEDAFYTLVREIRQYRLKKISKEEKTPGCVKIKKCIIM

| Structure (SMILES) | pIC50 [1] | Papp A→B at 2 h, 50 µM [2] | pIC50 (GTPase KRas [3]) | pIC50 [4] | hepatic clearance at 1 µM [5] | pKd (GTPase KRas [6]) | further results |
| --- | --- | --- | --- | --- | --- | --- | --- |
| Cc1nc2c(F)c(-c3cccc4ccc(F)cc34)c(CCC#N)cc2c2c1cc(CN1CCCCC1=O)n2[C@H]1[C@H]2CN[C@@H]1C2 | 7.41 | 0.7 ×10⁻⁶ cm/s | 8.21 | 5.99 | > 18.3 mL/min/kg | – | – |
| N#CCCc1cc2c(nc(-n3cncn3)c3cc(CN4CCOCC4=O)n([C@H]4[C@H]5CN[C@@H]4C5)c32)c(F)c1-c1cccc2ccc(F)cc12 | 8.00 | 1.7 ×10⁻⁶ cm/s | 8.43 | 6.28 | > 18.3 mL/min/kg | 9.08 | – |
| CN(C)C(=O)CCc1cc2c(OC[C@@]34CCCN3C[C@H](F)C4)nc3c(F)c(-c4cc(O)cc5ccccc45)c(CCC#N)cc3c2n1[C@H]1[C@H]2CN[C@@H]1C2 | 7.70 | < 0.1 ×10⁻⁶ cm/s | 8.68 | 6.39 | > 18.3 mL/min/kg | > 12.00 | – |
| CN(C)C1CN(c2nc(N3CCNCC3)c3cc(Cl)c(-c4cc(O)cc5ccccc45)c(F)c3n2)C1 | – | – | 5.10 | – | – | – | – |
| CCOc1nc2c(F)c(-c3cc(O)cc4ccccc34)c(CCC#N)cc2c2c1cc(CCC(=O)N(C)C)n2[C@H]1[C@H]2CN[C@@H]1C2 | 7.55 | 0.2 ×10⁻⁶ cm/s | 8.42 | 6.31 | > 18.3 mL/min/kg | 9.59 | – |
| N#CCCc1cc2c(nc(OC[C@@]34CCCN3C[C@H](F)C4)c3cc(CCC(=O)N4CCC4)n([C@@H]4[C@H]5CN[C@@H]4C5)c32)c(F)c1-c1cccc2ccc(F)cc12 | 7.21 | – | – | 5.96 | – | 9.62 | – |
| Cc1cc2c(nc(N3CC(N(C)C)C3)c3nc(CCC(=O)N(C)C)n([C@H]4[C@H]5CN[C@@H]4C5)c32)c(F)c1-c1cc(O)cc2ccccc12 | 5.89 | – | 7.92 | – | – | 8.52 | – |
| N#CCCc1cc2c(nc(-c3ccncn3)c3cc(CN4CCOCC4=O)n([C@H]4[C@H]5CN[C@@H]4C5)c32)c(F)c1-c1cccc2ccc(F)cc12 | 7.77 | 1.1 ×10⁻⁶ cm/s | 8.42 | 6.20 | 11.7 mL/min/kg | – | efflux ratio at 2 h, 50 µM [7]: 20 |
| Cc1nc2c(F)c(-c3cc(O)cc4ccccc34)c(CCC#N)cc2c2c1cc(CN1CCCCC1=O)n2[C@H]1[C@H]2CN[C@@H]1C2 | 7.35 | – | 8.46 | 6.22 | – | – | – |
| CN(C)C(=O)CCc1cc2c(N3CC(C)(N(C)C)C3)nc3c(F)c(-c4cc(O)cc5ccccc45)c(CCC#N)cc3c2n1[C@H]1[C@H]2CN[C@@H]1C2 | 6.98 | – | 8.52 | 5.95 | – | 10.40 | – |
| CN(C)C1CN(c2nc(N3CC4CCC(C3)N4)c3cc(Cl)c(-c4cc(O)cc5ccccc45)c(F)c3n2)C1 | – | – | 6.15 | – | – | – | – |
| CN(C)C(=O)CCc1nc2c(N3CC(N(C)C)C3)nc3c(F)c(-c4cc(O)cc5ccccc45)c(CCC#N)cc3c2n1[C@H]1[C@H]2CN[C@@H]1C2 | 6.90 | – | 8.54 | 6.01 | – | 10.70 | – |
| Cc1nc2c(F)c(-c3cccc4ccc(F)cc34)c(CCC#N)cc2c2c1cc(CN1CCOCC1=O)n2[C@H]1[C@H]2CN[C@@H]1C2 | 8.14 | 0.7 ×10⁻⁶ cm/s | 8.57 | 6.17 | > 18.3 mL/min/kg | – | – |
| CN(C)C(=O)CCc1nc2c(N3CC(C)(N(C)C)C3)nc3c(F)c(-c4cc(O)cc5ccccc45)c(CCC#N)cc3c2n1[C@H]1[C@H]2CN[C@@H]1C2 | 7.04 | – | 8.54 | 5.91 | – | 10.51 | – |
| CCOc1nc2c(F)c(-c3cc(O)cc4ccccc34)c(CCC#N)cc2c2c1cc(CN1CCCCC1=O)n2[C@H]1[C@H]2CN[C@@H]1C2 | 7.68 | 0.2 ×10⁻⁶ cm/s | 8.59 | 5.63 | > 18.3 mL/min/kg | 10.30 | – |
| Cc1cc(-c2nc3c(F)c(-c4cccc5ccc(F)cc45)c(CCC#N)cc3c3c2cc(CN2CCOCC2=O)n3[C@H]2[C@H]3CN[C@@H]2C3)ccn1 | 7.44 | 1.6 ×10⁻⁶ cm/s | 8.16 | 6.25 | 16.7 mL/min/kg | 8.92 | CL (Primates [8]): 16.2 mL/min/kg; bioavailability [9]: 11%; Cmax [10]: 2.5 nM; AUC (Primates [11]): Below_limit_of_detection; Cmax [12]: 41.5 nM; bioavailability [13]: 0%; QH [14]: > 100%; QH (Primates [15]): 37%; AUC at 24 h [16]: 0.108 µM·h; half-life [17]: 8.4 h; half-life [18]: 3.5 h |
| CCOc1nc2c(F)c(-c3cccc4ccc(F)cc34)c(CCC#N)cc2c2c1cc(CCC(=O)N(C)C)n2[C@H]1[C@H]2CN[C@@H]1C2 | – | – | 6.41 | – | 11.7 mL/min/kg | – | – |
| CN(C)C1CN(c2nc3c(F)c(-c4cc(O)cc5ccccc45)c(Cl)cc3c3c2ncn3[C@H]2[C@H]3CN[C@@H]2C3)C1 | – | – | 6.17 | – | – | – | – |
| Cc1cc(-c2nc3c(F)c(-c4cccc5ccc(F)cc45)c(CCC#N)cc3c3c2cc([C@@H](C)N2CCOCC2=O)n3[C@H]2[C@H]3CN[C@@H]2C3)ccn1 | 8.12 | 0.6 ×10⁻⁶ cm/s | 8.68 | 6.99 | > 18.3 mL/min/kg | 9.03 | – |
| Cc1cnc(-c2nc3c(F)c(-c4cccc5ccc(F)cc45)c(CCC#N)cc3c3c2cc([C@@H](C)N2CCOCC2=O)n3[C@H]2[C@H]3CN[C@@H]2C3)cn1 | 8.17 | 1.4 ×10⁻⁶ cm/s | 8.55 | 7.26 | > 18.3 mL/min/kg | 8.82 | half-life [19]: 4.9 h; bioavailability [9]: 20%; bioavailability [13]: 2%; Cmax [20]: 7.2 nM; Cmax [21]: 24 nM; AUC at 24 h [22]: 0.085 µM·h; half-life [23]: 2.5 h; QH (Primates [24]): 39%; AUC [25]: 0.068 µM·h; QH [26]: > 100% |
| CC(Oc1nc2c(F)c(-c3cc(O)cc4ccccc34)c(CCC#N)cc2c2c1cc(CCC(=O)N(C)C)n2[C@H]1[C@H]2CN[C@@H]1C2)C1CCCN1C (single isomer, unassigned) | 7.27 | – | 8.44 | 5.58 | – | 10.00 | – |
| CC(Oc1nc2c(F)c(-c3cc(O)cc4ccccc34)c(CCC#N)cc2c2c1nc(CCC(=O)N(C)C)n2[C@H]1[C@H]2CN[C@@H]1C2)C1CCCN1C (single isomer, unassigned) | 5.91 | – | 7.82 | – | – | – | – |
